Experiment [1] deals with MCF-7 cancer cells. The experiment can be described thus: DNA content flow cytometry cell cycle analysis. Format: cell-based, human. The settings on record: MCF-7, treated at IC50 = 25.92 μM, 48 h. An excerpt: (§1) Moreover, MCF-7 cancer cells after compound 1 treatment were subjected to DNA flow cytometry to analyse the cell cycle kinetics to determine the compound’s phase interference with the cell cycle. The study of the cell cycle is a crucial test showing the cell accumulation percentage in each growth phase with cytotoxic substances after treatment. […] Consequently, compound 1 induced pre-G1 and G2/M-phase cell cycle arrest and blocked the progression of MCF-7 cancer cells that deteriorated the genetic material.
(§2) Cell cycle analysis, as well as apoptotic assays, were performed in detail according to the previously described methods. Full methodologies of flow cytometric assays were provided in the Supplementary File.

The next experiment deals with caspase 9. The experiment can be described thus: RT-PCR mRNA expression in MCF-7 cells, caspase 9. The format is cell-based, human. The following applies: MCF-7, treated at IC50 = 25.92 μM, 48 h. Here is the method:
(§3) The results are in accordance with the proposed apoptotic pathway for anticancer activity.
(§4) At the end of treatments, cells were collected, and total RNA was extracted using a RNeasy® Mini Kit (Qiagen, Hilden, Germany) according to the manufacturer’s instructions. cDNA synthesis was performed with 500 ng of RNA using the i-Script cDNA synthesis kit (Bio-Rad, Hercules, CA, USA) following the manufacturer’s instructions. Real-time (RT)-PCR reactions consisted of 25-µL Fluocycle®II SYBR® (Euroclone, Milan, Italy), 1.5 µL of both 10-µM forward and reverse primers, 3-µL cDNA, and 19 µL of H2O. All reactions were performed for 35 cycles using this temperature profile: 95 °C for 5 m (initial denaturation); 95 °C for […] (Denaturation), 55 °C for […] (Annealing), and 72 °C for […] (Extension). Then, The cycle threshold (Ct) values were collected and the relative folds of changes between all the samples. Primer used were listed in the Supplementary Files.

For another experiment, the system named is HepG2. The experiment can be described thus: MTT cytotoxic assay, HepG2. The format is cell-based. The settings on record: Homo sapiens, read-out: IC50 ± SD HepG2. As to the method:
(§5) Crude extracts, in addition to six sterol compounds, were screened for their cytotoxic activities against four cancerous cell lines: HepG2, Hela, A549, and MCF-7 and a noncancerous breast (MCF-10A) cell line to test their safety using the MTT assay (Table 2). […] After fractionation and isolation of the pure compounds, six compounds were tested for their cytotoxicity. […] Additionally, it was safe against the normal cells, with IC50 ≥ 50.
(§6) Crude extract, together with six of the identified sterols, were screened for their cytotoxic activities against liver HepG2, breast MCF-7, and normal cells (MCF-10A), as well. According to the standard cell culture work, each cell line was cultured in a proper complete medium. The treatment of cells was performed with the crude extract and then, with the identified compounds for a 48-h incubation, and Fluorouracil (5-FU) was used as the standard. Percent of cell viability was calculated by the following formula: % cell viability = (Mean absorbance of tested compound)/(Mean absorbance in control) × 100. Then, IC50 in µM was calculated using GraphPad Prism 7.

For another experiment, the system named is P53 gene. Nature of the experiment: RT-PCR mRNA expression in MCF-7 cells, P53. Format: cell-based, human. The settings on record: MCF-7, treated at IC50 = 25.92 μM, 48 h. As to the method: as §3, §4
Another experiment deals with antiapoptotic Bcl-2 gene. Nature of the experiment: RT-PCR mRNA expression in MCF-7 cells, Bcl-2. The following applies: MCF-7, treated at IC50 = 25.92 μM, 48 h. Format: cell-based, human. As to the method: as §3, §4
The subject of the next experiment is MCF-7. The experiment can be described thus: MTT cytotoxic assay, MCF-7. The format is cell-based, human. As to the method:
as §5, §6

The next experiment has as its system BAX. The experiment can be described thus: RT-PCR mRNA expression in MCF-7 cells, BAX. Format: cell-based, human. The following applies: MCF-7, treated at IC50 = 25.92 μM, 48 h. As to the method:
as §3, §4

The subject of a further experiment is Normal Cells MCF-10A. The experiment can be described thus: MTT cytotoxic assay, normal cells MCF-10A. The format is cell-based. The settings on record: Homo sapiens, pure compounds, 48-h incubation, n = 3, read-out: IC50 ± SD Normal Cells MCF-10A. Here is the method: as §5, §6
Another experiment relates to caspase 3. Nature of the experiment: RT-PCR mRNA expression in MCF-7 cells, caspase 3. Format: cell-based, human. The following applies: MCF-7, treated at IC50 = 25.92 μM, 48 h. As to the method:
as §3, §4

A further experiment deals with caspase 8. The experiment can be described thus: RT-PCR mRNA expression in MCF-7 cells, caspase 8. Format: cell-based, human. The following applies: MCF-7, treated at IC50 = 25.92 μM, 48 h. As to the method: as §3, §4
Experiment [2] relates to MCF-7 cancer cells. The experiment can be described thus: Annexin V/PI flow cytometric apoptosis/necrosis assessment. The format is cell-based, human. The settings on record: MCF-7, treated at IC50 = 25.92 μM, 48 h.
From the text: as §1, §2

The test system of a further experiment is A549. Nature of the experiment: MTT cytotoxic assay, A549. Format: cell-based. The following applies: Homo sapiens, read-out: IC50 ± SD A549. As to the method: as §5, §6
The test system of another experiment is Hela. Nature of the experiment: MTT cytotoxic assay, Hela. The format is cell-based. The settings on record: Homo sapiens. As to the method:
as §5, §6

The mark [3] stands for this setting: HepG2, pure compounds, MTT, 48-h incubation, n = 3.
Where [4] appears, read: Homo sapiens, MCF7, 48 h, pure compounds, MTT, 48-h incubation, n = 3, read-out: IC50 ± SD MCF-7.
Setting [5] is: A549, pure compounds, MTT, 48-h incubation, n = 3.
Setting [6] is: pure compounds, MTT, 48-h incubation, n = 3, read-out: IC50 ± SD Hela.

“And” between values parts separate entries of the source, which are not always exact repeats. Equal values may be shown once. Read-outs that look alike come from different tables or passages of the source.

Compound `CCCCCC/C=C\C/C=C\CCCCCCC(=O)OC[C@H]1O[C@@H](O[C@H]2CCC3(C)C(=CCC4C3CCC3(C)C(C(C)CCC(CC)C(C)C)CCC43)C2)[C@H](O)[C@@H](O)[C@@H]1O` (stereo partly drawn) [Compound 1, (6’-O-octadeca-8″,11″-dienoyl)-sitosterol-3-O-β-D-glucoside] showed a pre-G1 cell population in the experiment with MCF-7 cancer cells [1] (control 1.37%) of 25.94%. In addition, in the experiment on MCF-7 cancer cells [1] (control 7.46%), the G2/M cell population worked out at 26.74%. Besides, in the experiment on MCF-7 cancer cells [1] (control 34.26%), the “cell population in S” value is recorded as 24.95%. Further, the “caspase 9 mRNA level, fold change” value with caspase 9 was 5.44 fold and 5.44± 0.49 fold. In addition, the IC50 in the experiment on HepG2 (setting [3]) is 27.5 ± 1.04 µM; with MCF-7 (setting [4]), 25.8 µM; in the experiment on MCF-7 (pure compounds, MTT, 48-h incubation, n = 3, read-out: IC50 ± SD MCF-7) it was 25.8 ± 1.04 µM; in the experiment with Normal Cells MCF-10A it was no less than 50 µM. Moreover, in the experiment with P53 gene, the “P53 gene mRNA level, fold change” value was “≈ 3.55 fold and 3.55± 0.28 fold”. In addition, in the experiment on antiapoptotic Bcl-2 gene, the “Bcl-2 mRNA level, fold change” value is “≈ 0.81 fold and 0.81± 0.05 fold”. Besides, the “LogIC50 (Figure 4 curve fit)” value in the experiment on MCF-7 (MCF-7, nonlinear regression dose-inhibition curve fit) came to 1.412. For the same compound, the “BAX mRNA level, fold change” value in the experiment with BAX was 3.77 fold and 3.77± 0.37 fold. The “caspase 3 mRNA level, fold change” value in the experiment with caspase 3 was “≈ 5.01 fold and 5.01± 0.27 fold”. Also, the “caspase 8 mRNA level, fold change” value in the experiment with caspase 8 is 1.9 fold and 1.9± 0.13 fold. In the experiment on MCF-7 cancer cells [2], the “apoptotic cell death, fold vs control” value came to 32.6 fold. Besides, the “cell death via necrosis, fold vs control” value with MCF-7 cancer cells [2] is listed as 10.8 fold. In addition, the “apoptotic cell death, total apoptosis” value with MCF-7 cancer cells [2] (control 0.51%) worked out at 16.63%. Besides, in the experiment with MCF-7 cancer cells [2] (control 0.86%), the “cell death via necrosis” value is reported as 9.31%.

Turning to `CC[C@H](CC[C@@H](C)[C@H]1CC[C@H]2[C@@H]3CCC4=CC(=O)CC[C@]4(C)[C@H]3CC[C@]12C)C(C)C` [Compound 2, stigmast-4-en-3-one], the IC50 in the experiment on A549 (A549, 48 h) was 45.6 ± 0.75 µM; in the experiment with MCF-7 (Homo sapiens, MCF7, 48 h, read-out: IC50 ± SD MCF-7, pure compounds, MTT, 48-h incubation, n = 3) it was no less than 50 µM; in the experiment on Normal Cells MCF-10A it was no less than 50 µM; with Hela (48 h, read-out: IC50 ± SD Hela) it was 32.5 ± 0.89 µM.

Turning to `CCC(CC[C@@H](C)[C@H]1CC[C@H]2[C@@H]3CC(O)C4=CC(=O)CC[C@]4(C)[C@H]3CC[C@]12C)C(C)C` (stereo partly drawn) [Compound 3, 6-β-hydroxy-24-ethyl-cholest-4-en-3-one], the IC50 in the experiment on A549 (setting [5]) was 49.9 ± 1.03 µM; in the experiment with MCF-7 (setting [4]), no less than 50 µM; with Normal Cells MCF-10A, no less than 50 µM; in the experiment with Hela (setting [6]) it was no less than 50 µM.

For the compound `CC[C@H](CC[C@@H](C)[C@H]1CC[C@H]2[C@@H]3CC=C4C[C@@H](O)CC[C@]4(C)[C@H]3CC[C@]12C)C(C)C` [Compound 5, β-sitosterol], the IC50 in the experiment on A549 (A549, 48 h) was no less than 50 µM; with HepG2 (HepG2, 48 h), no less than 50 µM; in the experiment with MCF-7 (Homo sapiens, MCF7, 48 h, read-out: IC50 ± SD MCF-7), no less than 50 µM; in the experiment on Normal Cells MCF-10A, no less than 50 µM; with Hela (48 h, read-out: IC50 ± SD Hela), 42.3 ± 1.02 µM.

As to `O=c1[nH]cc(F)c(=O)[nH]1` [Compound 5-FU, 5-fluorouracil, reference compound], the IC50 in the experiment on A549 (setting [5]) was 7.47 ± 0.43 µM; with HepG2 (setting [3]) it was 15.8 ± 0.28 µM; in the experiment on MCF-7 (setting [4]) it was 27 ± 0.76 µM; in the experiment with Normal Cells MCF-10A, no less than 50 µM; with Hela (setting [6]), 13 ± 0.65 µM.

As for `CCCCCCCCCCCCCCCC(=O)OCC1OC(OC2CCC3(C)C(=CCC4C3CCC3(C)C(C(C)CCC(CC)C(C)C)CCC43)C2)C(O)C(O)C1O` [Compound 6, (6’-O-palmitoyl)-sitosterol-3-O-β-D-glucoside], the results for the IC50 with HepG2 (setting [3]), with MCF-7 (setting [4]) and with Normal Cells MCF-10A were 42.5 ± 1.71 µM, no less than 50 µM and no less than 50 µM, respectively.

In the case of `CCC(CCC(C)C1CCC2C3CC=C4CC(OC5OC(CO)C(O)C(O)C5O)CCC4(C)C3CCC12C)C(C)C` [Compound 7, β-sitosterol-3-O-β-D-glucoside], the IC50 is no less than 50 µM in the experiment on HepG2 (setting [3]), 38.1 ± 0.98 µM in the experiment on MCF-7 (setting [4]) and no less than 50 µM in the experiment with Normal Cells MCF-10A.

The values above are taken from paper PMC7731115, “Cytotoxic, Apoptosis-Inducing Activities, and Molecular Docking of a New Sterol from Bamboo Shoot Skin Phyllostachys heterocycla var. pubescens” (Molecules, 2020).
